According to patent US10973912B2, “Treatment for myopathy” (Children's Medical Center Corporation, priority 2015, dated 2021):
Entries after “also recorded” stand apart in the source; their conditions may differ.

How the values were obtained:
Assay type in all cases: in vivo, zebrafish (Danio rerio)
ryr1b mutants [1] = test: Body angle measurement after 20 days of treatment
Description: In FIG. 10A, body angles of ryr1b mutants after 20 days of NIF treatment (10.0 μg/mL) are corrected and statistically indistinguishable from wild-type controls. […] Angles were measured by first drawing/extending straight lines between the eyes of the larva as well as along the midline of the trunk (shown by dotted red lines). The angle of intersection was determined using Adobe Photoshop CS3 software (WT-DMSO: 179.1±0.9°, n=6; WT-NIF: 176.8±1.1°, n=6; ryr1b-DMSO: 142.6±6.2°, n=11; ryr1b-NIF: 174.4±2.0°, n=4). Significance was determined by a one-way ANOVA (F=13.60, P<0.0001), followed by pairwise Tukey's HSD post hoc tests. […] Three independent trials were performed with larvae from three different clutches, examining a total of 14-20 wild-type and ryr1b larvae from both DMSO- and NIF-treated groups. Genotypes of individual embryos were confirmed by genomic PCR following the study. Significance was determined by a one-way ANOVA (F=10.03, P=0.0009), followed by pairwise Tukey's HSD post hoc tests. […] One representative 20-minute time interval within the recording period is shown.
This bending is likely a consequence of skeletal muscle weakness, and may be analogous to neck and trunk flexor weakness observed in human patients with MmD (FIG. 10A). To determine if NIF could correct this abnormality, larvae were treated with the compound from 1 to 20 dpf. After 20 days, body angles were measured as the angle of intersection between two lines, one drawn between the eyes of each larva and one drawn along the trunk midline. […] These improvements in morphology reflect long-term strengthening of ryr1b skeletal muscles as a result of exposure to NIF.

ryr1b skeletal muscles = test: Tetanic force per cross-sectional area in larvae at 5 dpf; conditions: WT, n=5, 9 biphasic 200 μs pulses at 300 Hz
Description: Tetanic forces were measured following stimulation with 9 biphasic, 200 μs square-wave pulses at 300 Hz (WT-DMSO: 45.6±4.2 kPa, n=5; WT-NIF: 52.8±4.1 kPa, n=5; ryr1b-DMSO: 11.4±1.3 kPa, n=7; ryr1b-NIF: 25.4±4.0 kPa, n=7). Significance was determined by a one-way ANOVA (F=29.61, P<0.0001), followed by pairwise Tukey's HSD post hoc tests. […] Non-linear regression data of curves were not statistically different, as determined by an extra sum-of-squares F test (P=1.0).
Ryr1b mutants display weaker muscle contractions than wild-type clutchmates as early as 2 dpf^30. To investigate whether […] affects contractile strength in zebrafish, ryr1b mutants and unaffected controls were treated with the compound for several days. At 5 dpf, electrophysiological studies were performed with the help of Dr. Jeffrey Widrick.

ryr1b mutants [2] = test: Kaplan-Meier survival of ryr1b mutants; conditions: 10 μg/mL from 1 to 50 dpf
Description: Kaplan-Meier survival curves of ryr1b mutants treated with either DMSO or NIF (10 μg/mL) from 1 to 50 dpf. Mutants were sorted from unaffected controls at 5 dpf using a touch-evoked escape behavior assay. Untreated fish all died by 35 days of life. Median survival of DMSO-versus NIF-treated mutants was 15.0 and 13.0 days, respectively.
In addition to their muscular defects, ryr1b mutants die prematurely^30. To examine whether long-term treatment with NIF positively impacts the life span of ryr1b mutants, affected larvae (selected at 5 dpf by touch-evoked escape behavior assay) were treated with compound from 1 to 50 dpf.

phosphorylated Stat3 = test: Western blot of phosphorylated Stat3 at 5 dpf; conditions: 10 μg/mL, normalized to β-Actin
Description: In two independent experiments, two pools of 20 larvae from heterozygous ryr1b matings were treated with DMSO or with one of three different concentrations of NIF (1.0-100.0 μg/mL) at 1 dpf and evaluated in terms of touch-evoked escape behaviors at 5 dpf (n=40). Following phenotypic scoring, all living embryos were genotyped using three-primer genomic PCR. Swimming scores for larvae genotype-confirmed as ryr1b homozygous mutants are shown as a percentage of the total number of living larvae in each dose category: 1=poor swimming; 2 or 3=moderate or wild-type swimming. NIF improved mobility of ryr1b mutants at a dose of 10 μg/mL. […] Phospho-Stat3 band intensities were normalized to β-Actin control bands and quantified in Image J (NIH).
Western blotting was performed on groups of 50-100 wild-type or mutant zebrafish larvae at 5 dpf. […] Phospho-Stat3 band intensities were normalized to control bands and quantified in Image J (NIH).
To determine whether zebrafish stat3 is differentially expressed in the wild-type and Ryr1-deficient background, quantitative real-time RT-PCR was performed using fluorescently tagged Taqman probes.

ryr1b zebrafish = test: Activity monitoring (Noldus Daniovision), spontaneous swimming at 20 dpf; conditions: long-term treatment
Description: In FIG. 10A, body angles of ryr1b mutants after 20 days of NIF treatment (10.0 μg/mL) are corrected and statistically indistinguishable from wild-type controls. […] Angles were measured by first drawing/extending straight lines between the eyes of the larva as well as along the midline of the trunk (shown by dotted red lines). The angle of intersection was determined using Adobe Photoshop CS3 software (WT-DMSO: 179.1±0.9°, n=6; WT-NIF: 176.8±1.1°, n=6; ryr1b-DMSO: 142.6±6.2°, n=11; ryr1b-NIF: 174.4±2.0°, n=4). Significance was determined by a one-way ANOVA (F=13.60, P<0.0001), followed by pairwise Tukey's HSD post hoc tests. […] Significance was determined by a one-way ANOVA (F=10.03, P=0.0009), followed by pairwise Tukey's HSD post hoc tests. […]
Zebrafish behavioral parameters were defined using the Noldus Daniovision activity monitoring system. […] Swimming behaviors were recorded over the entire 2.0-hour period with an infrared light source. […] Behavioral parameters recorded include frequency, mean velocity, total distance, and cumulative duration of movement, and reflect the average of all larvae in an experimental group.
Next, to determine if long-term NIF treatment affects ryr1b motor functions, spontaneous swimming behaviors of 20 dpf larvae were quantified using the Noldus Daniovision. […]

## O=C(N/N=C/c1ccc([N+](=O)[O-])o1)c1ccc(O)cc1 [Nifuroxazide]
ryr1b mutants [1]; 20 days of treatment, 10.0 μg/mL, WT, n=6
  body angle, wild-type larvae: 176.8±1.1 °
ryr1b mutants [1]; 20 days of treatment, 10.0 μg/mL, ryr1b, n=4, ryr1b-DMSO 142.6±6.2
  body angle, ryr1b mutants: 174.4±2.0 °
ryr1b mutants [1]; treated from 1 to 20 dpf
  body angles of treated ryr1b mutants: significantly increased and statistically indistinguishable from unaffected controls
ryr1b skeletal muscles
  tetanic force per cross-sectional area, wild-type larvae: 52.8±4.1 kPa
ryr1b mutants [2]; listed as NIF
  survival of ryr1b mutants: did not significantly differ; also recorded: two affected fish treated with NIF survived until termination of the study
ryr1b mutants [2]; ryr1b mutants, DMSO 15.0 days, log-rank P=0.5
  median survival: 13.0 days
Phosphorylated Stat3
  levels of phosphorylated Stat3 protein: larger decrease in ryr1b mutants than in unaffected controls
ryr1b zebrafish
  distance travelled during 2.0-hour period: large and robust increase on the distance travelled by ryr1b zebrafish
